Consider three molecules from publication PMC6177011, “Idebenone and coenzyme Q10 are novel PPARα/γ ligands, with potential for treatment of fatty liver diseases” (Disease Models & Mechanisms, 2018).

For orientation: pEC50 means the EC50 on a negative log10 scale, so that one unit is a factor of ten. A lower pEC50 goes with a high EC50.

Common to all, as to type: cell-based
One assay addresses T1, PPARγ (Homo sapiens, UniProt P37231).
T1 construct: gene PPARG; PPARγ (aa 189-477) LBD fusion
T1 sequence (P37231 217-505): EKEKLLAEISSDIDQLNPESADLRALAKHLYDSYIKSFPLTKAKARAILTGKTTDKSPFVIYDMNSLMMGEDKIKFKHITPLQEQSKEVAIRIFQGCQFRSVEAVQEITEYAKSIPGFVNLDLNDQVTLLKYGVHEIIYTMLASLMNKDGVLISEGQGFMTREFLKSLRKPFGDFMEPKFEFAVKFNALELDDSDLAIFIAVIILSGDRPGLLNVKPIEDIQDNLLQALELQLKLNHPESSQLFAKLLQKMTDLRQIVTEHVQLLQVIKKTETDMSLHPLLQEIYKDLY
Put plainly: antagonism of the human PPARγ LBD ligand-trap GFP reporter in transgenic zebrafish.

The target in another assay is T2, PPARα (Homo sapiens, UniProt Q07869).
T2 construct: gene PPARA; His-tagged PPARα LBD
T2 sequence (Q07869 196-468 limits assumed): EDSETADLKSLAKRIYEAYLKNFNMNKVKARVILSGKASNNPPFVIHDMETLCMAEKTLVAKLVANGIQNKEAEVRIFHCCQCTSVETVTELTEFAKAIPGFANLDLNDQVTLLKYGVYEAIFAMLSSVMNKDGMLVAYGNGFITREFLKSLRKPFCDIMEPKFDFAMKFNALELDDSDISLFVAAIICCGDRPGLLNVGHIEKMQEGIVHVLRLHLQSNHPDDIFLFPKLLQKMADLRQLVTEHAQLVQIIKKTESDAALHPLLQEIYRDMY
In words: co-purification with purified LBD and LC-MS; EC50 from GAL4-LBD luciferase reporter in HEK293. For orientation: A reporter such as luciferase makes a cellular process visible.

The target in another assay is T3, hPPARδ/β (Homo sapiens, UniProt Q03181).
T3 construct: gene PPARD; GAL4-hPPARδ LBD fusion
T3 sequence (Q03181 171-441 limits assumed): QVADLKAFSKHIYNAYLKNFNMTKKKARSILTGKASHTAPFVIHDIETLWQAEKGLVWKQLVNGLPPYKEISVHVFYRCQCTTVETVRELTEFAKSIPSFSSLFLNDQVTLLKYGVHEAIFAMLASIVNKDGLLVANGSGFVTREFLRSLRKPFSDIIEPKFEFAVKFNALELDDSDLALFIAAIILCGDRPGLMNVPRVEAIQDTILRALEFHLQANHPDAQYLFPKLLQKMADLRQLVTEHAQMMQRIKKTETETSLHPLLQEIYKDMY
In words: GAL4-LBD UAS-luciferase reporter in HEK293.

pEC50: −log10 of the molar value.

`O=C(Nc1ccccc1)c1cc([N+](=O)[O-])ccc1Cl` [GW9662]: on PPARγ, the “antagonism of the human PPARγ LBD ligand-trap GFP reporter in transgenic zebrafi” value is “The GW9662 suicide antagonist blocks agonist activity of rosiglitazone and idebenone, but not of RA”. Turning to `COC1=C(OC)C(=O)C(CCCCCCCCCCO)=C(C)C1=O` [idebenone], the pEC50 at PPARα is 5.60.

At hPPARδ/β, `O=C(O)COc1ccc(SCC=C(c2ccc(Br)cc2)c2ccc(Br)cc2)cc1Cl` [CAY10592] showed a pEC50 of 7.89.
